From paper PMC9774438, “Effects of Synthetic Short Cationic Antimicrobial Peptides on the Catalytic Activity of Myeloperoxidase, Reducing Its Oxidative Capacity” (Antioxidants, 2022)
“Also recorded” adds a separate entry of the source. Read-outs that look alike come from different tables or passages of the source.

What was measured:
MPO active site = conditions: computational docking; ref [31]; cited from earlier work
Excerpt: To react with MPO, a peptide residue has to closely approach to the active site. The active site heme group of MPO is located in a crevice (~15 Å in depth) with a channel (~10 Å in diameter) which opens into the distal cavity. Only H2O2 and small anions have ready access to the iron atom. Other compounds that are oxidized by MPO via the peroxidase cycle bind in the binding site at the entrance to the distal cavity. […] Despite concerns rais ...

MPO = conditions: ref [31]; cited from earlier work
Excerpt: The positively charged character of arginine played a key role, since substitu ...

myeloperoxidase (MPO) [1] = target: T1, myeloperoxidase (MPO) (Homo sapiens, UniProt P05164); experiment: MPO chlorinating activity (Celestine Blue B assay); assay type: biochemical; conditions: 0.008–8 μM peptide, 0.8 nM MPO heme, 200 μM CB, 150 mM NaCl, 50 μM H2O2, 50 mM Na-acetate pH 5.5
T1 construct: Native myeloperoxidase (MPO) was obtained from human leukocyte extract by successive chromatography on heparin-Sepharose and phenyl-agarose; from tissue; host or cells: human leukocyte extract
Procedure: MPO chlorinating activity was evaluated fluorometrically using Celestine Blue B (CB) which was oxidized to fluorescent glycol (λex = 487 nm, λem = 578 nm) by taurine N-chloramine produced in the reaction of taurine with HOCl generated by MPO [39]. The assay was performed in 96-plate format. MPO was preincubated with peptides for 5 min in a volume of 100 μL, with the concentrations being: MPO, 1.6 nM heme and peptide, 16 nM–16 μM. Then, 100 μL aliquots of CB-containing mix (CB, 400 µM; H2O2, 100 µM; taurine, 4 mM; KI, 10 µM; NaCl, 300 mM; 50 mM Na-acetate buffer, pH 5.5) were added to MPO/peptide and to 100 μL of HOCl standards (0–150 μM). The fluorescence measurement was made with a CLARIOstar multimodal plate reader (BMG Labtech, Ortenberg, Germany) at 15 min after the reaction started. Fluorescence intensity detected for HOCl standards of HOCl was used for calculating the chlorinating activity as mole of HOCl per mole of MPO heme per second. To determine the type of CAMP-induced inhibition, KM and Vmax were obtained by varying substrates of MPO: NaCl in a final concentration from 25 to 300 mM, or H2O2 in a final concentration from 5 to 80 µM.
(§1) The Hannes-Wolf plots were made as ([Substrate]/V = f([Substrate]). KM was equal in magnitude to the intercept made on the abscissa axis by the approximating straight line; Vmax was calculated as a reciprocal value of the straight-line slope. The inhibition constant (Ki) for noncompetitive inhibition was calculated as follows: Ki = [I]/((Vmax − Vmax’)/Vmax’); Ki for competitive inhibition was calculated as follows: Ki = [I]/((KM’ − KM)/KM); Ki for mixed inhibition was calculated as follows: Ki = [I]/(((KM’ − KM)/KM)^2 + ((Vmax − Vmax’)/Vmax’))^2)^0.5; and Ki for uncompetitive inhibition was calculated as follows: Ki = [I]/(((KM − KM’)/KM’)^2 + ((Vmax – Vmax’)/Vmax’))^2)^0.5, where [I]—concentration of inhibitor (CAMP), KM—Michaelis constant without inhibitor, Vmax—maximal rate without inhibitor, KM’—Michaelis constant in the presence of inhibitor, Vmax’—maximal rate in the presence of inhibitor.
Chlorinating activity is a distinctive feature of MPO as compared with other peroxidases and it is an important property, enabling MPO to combat microbes. We tested whether the inhibitory effects of pept_1545 and Hm-AMP8 on peroxidase activity extend to MPO chlorinating activity. Chlorinating activity was measured using a fluorometric CB-based assay. To determine the concentration dependence of the effect of CAMPs on MPO chlorinating activity, the 0.008–8 μM concentration range (corresponding to 10–10,000 peptide molecules per heme) was used.

myeloperoxidase (MPO) [2] = target: T1, myeloperoxidase (MPO); experiment: MPO heme absorbance spectra (Compound II formation and decay, MPO turnover); assay type: biochemical; conditions: 2 μM MPO heme, 100 μM H2O2, 10 mM Na-phosphate pH 7.4; all concentrations
Procedure: Native myeloperoxidase (MPO) was obtained from human leukocyte extract by successive chromatography on heparin-Sepharose and phenyl-agarose followed by gel-filtration on a Sephacryl S-200 HR, as previously described. The Reinheit Zahl value (A430 nm/A280 nm) for the purified protein was 0.85. The MPO concentration was determined as the heme concentration measured spectrophotometrically at 430 nm with a molar extinction coefficient of 91,000 M^−1 cm^−1 [35].
Spectra of MPO were recorded on a Cary 50 Bio UV-Vis spectrophotometer (Varian, Mulgrave, Australia). Experiments were performed with Eppendorf UVette plastic UV/Vis cuvettes (Hamburg, Germany). An MPO concentration was 2 μM heme. MPO was mixed with CAMP in 10 mM Na-phosphate buffer (pH 7.4) supplemented with 0.2 mM DTPA. H2O2 was added as a microvolume of concentrated solution (100 μM final).
To elucidate the influence of CAMPs on MPO catalytic activity, we analyzed absorbance spectral changes for MPO activated by H2O2 in the presence of peptides. The spectra were obtained with 2 μM MPO heme and 100 μM H2O2 in 10 mM Na-phosphate buffer, pH 7.4. All reactions in these and further experiments were performed in buffers supplemented with 0.2 mM diethylenetriaminepentaacetic acid (DTPA) to sequester free transition metal ions to prevent tyrosine and cysteine autooxidation.
Figure 2 Time courses of spectral absorbance changes at 430 nm (indicative of MPO ground state) and 455 nm (indicative of Compound II) in the absence and presence of cationic antimicrobial peptides (CAMPs) in the system MPO/H2O2. The name of CAMP is given in parentheses after the panel designation (A–D). H2O2 (100 µM) was added to MPO (2 µM heme) or MPO preincubated with peptides at different peptide/heme molar ratios for 5 min in 10 mM Na-phosphate buffer, pH 7.4. Spectra were taken before and 0.25 min, 5 min, 10 min, and so on after adding H2O2. The initial absorbance values (before H2O2 addition) are shown as a red square marker. […]

myeloperoxidase (MPO) [3] = target: T1, myeloperoxidase (MPO); experiment: MPO peroxidase activity (Amplex Red assay); assay type: biochemical; conditions: 0.8–50 μM peptide, 8 nM MPO heme, 50 μM Amplex Red, 25 μM H2O2, 50 mM K-phosphate pH 7.4
Procedure: MPO peroxidase activity was evaluated fluorometrically using Amplex Red^TM reagent which was oxidized by MPO to the fluorescent resorufin (λex = 530 nm, λem = 590 nm). The assay was performed in 96-plate format. The final reaction mixture in 50 mM K-phosphate buffer (pH 7.4) was as follows: MPO, 8 nM heme; peptide, […]; H2O2, 25 μM; Amplex Red reagent, 50 μM. MPO was preincubated with peptides for 5 min in a volume of 100 μl. Then, Amplex Red was added, and the enzymatic reaction was initiated by adding H2O2 (a final probe volume of 200 μL per well). The fluorescence measurement was made with a CLARIOstar multimodal plate reader (BMG Labtech, Ortenberg, Germany) at 5 min after the beginning of the reaction. To determine the type of CAMP-induced inhibition, KM and Vmax were obtained by varying substrates of MPO: Amplex Red in a final concentration from 1 to 62.5 μM, or H2O2 in a final concentration from 0.625 to 20 μM.
as §1
From the experiments with varying concentrations of H2O2 (0.01–200 μM) and Amplex Red (6.25–100 μM), the optimal concentrations of 25 μM H2O2 and 50 μM Amplex Red were chosen for further work. The 0.8–50 μM concentration range (corresponding to 100–6250 peptide molecules per heme) was used to determine the concentration dependence of the effect of CAMPs on peroxidase activity of MPO.

erythrocytes = conditions: PBS, 1 h, 37 °C, Triton X-100 = 100%
Procedure: Comparative evaluation of hemolytic activity of the cationic antimicrobial peptides (CAMPs) Hm-
AMP8, pept_1545, Hm-AMP1, and Hm-AMP2 using a hemolysis assay measuring hemoglobin released from
damaged cells. In each group of bars, the final peptide concentration from left to right is 12.5 μM, 25 μM, 50
μM, and 100 μM. For melittin, the left bar – 0.5 μM, and the right bar – 1 μM. A working erythrocyte suspension
(in PBS) was prepared so that its ten -fold dilution gave an optical density of 0.4 at 800 nm (about 30 × 10^6 cells/mL).
Erythrocytes (125 μL) were added to the same volume of PBS containing the peptide. Cells with PBS served as
negative control; cells with Triton X-100 served as positive control wh ich was set to 100%. After 1-h incubation
(with slight shaking) at 37 °C, the samples were centrifuged at 1000 × g for 10 min , the supernatant was
transferred to the wells of a microplate, and the absorbance of hemoglobin was measured by a Multiskan Ascent
plate reader (Thermo Electron Corporation, Vantaa, Finland), with a test wavelength of 414 nm and a
background wavelength of 690 nm. The hemolysis percentage was calculated using the following equation:
Hemolysis (%) = {(sample absorbance – negative control) / (positive control – negative control)} × 100. Data
shown are mean ± SD from three independent experiments using blood from three healthy volunteers, with […]

T1 sequence (P05164 279-745 limits assumed): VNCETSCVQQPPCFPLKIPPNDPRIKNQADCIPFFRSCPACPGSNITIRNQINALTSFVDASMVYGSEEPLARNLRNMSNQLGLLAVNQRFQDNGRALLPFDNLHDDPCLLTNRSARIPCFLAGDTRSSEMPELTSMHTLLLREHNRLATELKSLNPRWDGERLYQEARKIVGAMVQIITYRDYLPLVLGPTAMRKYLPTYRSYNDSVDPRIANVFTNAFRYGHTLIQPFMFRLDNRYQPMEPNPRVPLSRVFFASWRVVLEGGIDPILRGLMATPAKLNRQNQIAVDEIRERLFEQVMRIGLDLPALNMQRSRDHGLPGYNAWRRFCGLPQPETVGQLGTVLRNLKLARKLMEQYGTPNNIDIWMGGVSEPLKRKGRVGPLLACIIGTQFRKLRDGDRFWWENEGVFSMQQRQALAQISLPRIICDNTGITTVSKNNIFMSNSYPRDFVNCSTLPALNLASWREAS
T1 sequence (P05164 165-273 limits assumed): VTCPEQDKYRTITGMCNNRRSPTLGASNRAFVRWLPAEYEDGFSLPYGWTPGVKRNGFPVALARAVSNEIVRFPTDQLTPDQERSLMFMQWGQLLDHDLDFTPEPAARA

## GRRRRSVQWCA [antimicrobial peptide …, human lactoferrin-derived]
MPO active site
  binding to MPO active site (docking): binding of the peptide GRRRRSVQWCA to the edge of and within the cleft of the active site
MPO
  inhibition of MPO: inhibiting MPO activity

## RLKRFKRVALRREKTARNFRSIVS [Hm-AMP1]
Myeloperoxidase (MPO) [1]
  effect on MPO chlorinating activity: no significant effect
Myeloperoxidase (MPO) [2]
  effect on H2O2-induced formation and decay of MPO Compound II / MPO turnover (summary): no significant effect on MPO cycling
Myeloperoxidase (MPO) [3]
  effect on MPO peroxidase activity: no inhibition; also recorded: No effect

## melittin
erythrocytes; 0.5 M (so in the source), three independent experiments
  Hemolysis: about 40%
erythrocytes; 1 M (so in the source)
  Hemolysis: complete hemolysis
